According to US20220378923A1, “BET DEGRADER” (KYOWA KIRIN CO., LTD., priority 2019, published 2022):
Read-outs that look alike come from different tables or passages of the source.

How the values were obtained:
[1] = system: SU-DHL-4 cells; assay: Inhibitory effect on cell viability in SU-DHL-4 cell line (Test Example 1); format: cell-based, human; details: 72 hours; for IC50: SU-DHL-4 (wild type) cells, calculated using the measurement results of test example 1, read-out: SU-DHL-4 WT IC50; for IC90: SU-DHL-4 cells, Cell Counting Kit-8, concentration showing 90% inhibition of cell viability, read-out: SU-DHL-4 Cell Viability Inhibition Rate IC90
Method in brief: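 SU-DHL-4 cells were grown at 37° C. under 5% CO2 in RPMI1640 with 10 vol % heat-inactivated FBS plus penicillin/streptomycin, seeded and precultured for 18 to 25 hours, then exposed to test compound at 0.1 vol % DMSO for 72 hours. Viability was read with Cell Counting Kit-8 by absorbance at 450 nm.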

[2] = system: MYC mRNA expression in SU-DHL-4 cells; assay: Suppressive effect on MYC mRNA expression (Test Example 2); format: cell-based, human; details: test compound 100 nmol/L, 6 hours, qRT-PCR corrected by ACTB, GAPDH; for Suppression Rate of MYC mRNA Expression (%): HPRT1; for inhibition at 0.1 µM: Homo sapiens, HPRT1, read-out: Suppression Rate of MYC mRNA Expression (%)
Method in brief: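 SU-DHL-4 cells were treated for 6 h at 37 °C with compound (0.1% DMSO final). MYC mRNA was measured by TaqMan qRT-PCR and normalised to the geometric mean of ACTB, GAPDH and HPRT1. Suppression was calculated relative to untreated wells.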

Structure (SMILES)	IC50 [1] [pM]	IC90 [1] [pM]	Suppression Rate of MYC mRNA Expression (%) [2] [%]	IC50 ([1]; Homo sapiens) [pM]	inhibition at 0.1 µM [2] [%]
CCC(=O)N1c2ccccc2[C@H](Nc2ccc(NC(=O)N3CCN(C(=O)C4CCC(N[C@@H]5C[C@H](C)N(C(=O)CC)c6ccccc65)CC4)CC3)cc2)C[C@@H]1C (stereo partly drawn) [Compound 7p, 4-((1R,4r)-4-(((2S,4R)-2-Methyl-1-propionyl-1,2,3,4-tetrahydroquinolin-4-yl)amino)cyclohexane-1-carbonyl)-N-(4-(((2S,4R)-2-methyl-1-propionyl-1,2,3,4-tetrahydroquinolin-4-yl)amino)phenyl)piperazine-1-carboxamide]	380	790	97.9		
CCC(=O)N1c2ccccc2[C@H](Nc2ccc(-c3nnc(CNC(=O)[C@H]4CC[C@H](N[C@@H]5C[C@H](C)N(C(=O)CC)c6ccccc65)CC4)o3)cc2)C[C@@H]1C [Compound 7q, (1R,4R)-4-(((2S,4R)-2-Methyl-1-propionyl-1,2,3,4-tetrahydroquinolin-4-yl)amino)-N-((5-(4-(((2S,4R)-2-methyl-1-propionyl-1,2,3,4-tetrahydroquinolin-4-yl)amino)phenyl)-1,3,4-oxadiazol-2-yl)methyl)cyclohexane-1-carboxamide]	90	240	97.4		
CCC(=O)N1c2ccccc2[C@H](Nc2ccc(NC(=O)CNC(=O)N[C@H]3CC[C@H](N[C@@H]4C[C@H](C)N(C(=O)CC)c5ccccc54)CC3)cc2)C[C@@H]1C [Compound 8j, 2-(3-((1R,4R)-4-(((2S,4R)-2-Methyl-1-propionyl-1,2,3,4-tetrahydroquinolin-4-yl)amino)cyclohexyl)ureido)-N-(4-(((2S,4R)-2-methyl-1-propionyl-1,2,3,4-tetrahydroquinolin-4-yl)amino)phenyl)acetamide]	290	500	97.2		
CCC(=O)N1c2ccccc2[C@H](Nc2ccc(C(=O)N3CC(C(=O)N[C@H]4CC[C@H](N[C@@H]5C[C@H](C)N(C(=O)CC)c6ccccc65)CC4)C3)cc2)C[C@@H]1C [Compound 8r, 1-(4-(((2S,4R)-2-Methyl-1-propionyl-1,2,3,4-tetrahydroquinolin-4-yl)amino)benzoyl)-N-((1R,4R)-4-(((2S,4R)-2-methyl-1-propionyl-1,2,3,4-tetrahydroquinolin-4-yl)amino)cyclohexyl)azetidine-3-carboxamide]	300	470	96.7		
CCC(=O)N1c2ccccc2[C@H](Nc2ccc(NC(=O)CCCC(=O)Nc3ccc(N[C@@H]4C[C@H](C)N(C(=O)CC)c5ccccc54)nc3)cc2)C[C@@H]1C [Compound 10k, N^1-(4-(((2S,4R)-2-Methyl-1-propionyl-1,2,3,4-tetrahydroquinolin-4-yl)amino)phenyl)-N^5-(6-(((2S,4R)-2-methyl-1-propionyl-1,2,3,4-tetrahydroquinolin-4-yl)amino)pyridin-3-yl)glutaramide]				210	97
CCC(=O)N1c2ccccc2[C@H](Nc2ccc(-c3nnc(CNC(=O)C4CCN(Cc5cc(O)cc(-c6c(C)noc6C)c5)CC4)o3)cc2)C[C@@H]1C [Compound 12a, 1-(3-(3,5-Dimethylisoxazol-4-yl)-5-hydroxybenzyl)-N-((5-(4-(((2S,4R)-2-methyl-1-propionyl-1,2,3,4-tetrahydroquinolin-4-yl)amino)phenyl)-1,3,4-oxadiazol-2-yl)methyl)piperidine-4-carboxamide]				510	98.5
CCC(=O)N1c2ccccc2[C@H](Nc2ccc(NC(=O)C3CN(C(=O)C4CCN(Cc5cc(O)cc(-c6c(C)noc6C)c5)CC4)C3)cc2)C[C@@H]1C [Compound 12b, 1-(1-(3-(3,5-Dimethylisoxazol-4-yl)-5-hydroxybenzyl)piperidine-4-carbonyl)-N-(4-(((2S,4R)-2-methyl-1-propionyl-1,2,3,4-tetrahydroquinolin-4-yl)amino)phenyl)azetidine-3-carboxamide]				2830	97.8
